# Tests used:
# [1] = tested on: purified (CD138-positive) patient MM cells; assay: DNA fragmentation apoptosis assay on purified patient MM cells
# [2] = biological target: proteasome β-5, β-1, β-2 subunits in MM.1S cells (Homo sapiens, UniProt P28072+P28074+Q99436); type: cell-based
# Protocol: In vivo determination of proteasome activity was conducted using a competition experiment with Dansyl-Ahx3L3VS, which covalently modifies all active proteasome subunits. This inhibitor contains a dansyl sulfonamide hexanoyl hapten that can be visualized by immunoblotting using antibodies against the dansyl moiety. […] Cells were lysed by incubating them for 30 mins in NP-40 lysis buffer (50 mM Tris-HCl pH 8.0, 150 mM NaCl, 1% NP-40), followed by 5 min. centrifugation to remove membrane fractions, nuclei, and cell debris. […] Blots were developed by enhanced chemiluminescence (Western Lightning, Perkin-Elmer).
smiles,measurement,setting,value
CC12OC(=O)C1(C(O)C1C=CCCC1)NC(=O)C2CCCl (stereo not drawn) [compound of formula (II) (X=Cl)],apoptosis by DNA fragmentation assay,"[1]; 10 nM, 24 h, nine relapsed MM patients, FIG. 5B",significant apoptosis
same,increase in apoptosis,"[1]; CD138+ cells of two patients, 20 nM, 24 h, FIG. 6",10-12 fold
same,IC50 for MM cells,[1]; stated in words,within the nanomolar concentration
same,dansylAhx3L3VS-labeling of the β-5 subunits,"[2]; 7 nM, 30 mins, 1 h or 3 h, FIG. 4",decreases the dansylAhx3L3VS-labeling of the β-5 subunits
same,concentration decreasing dansylAhx3L3VS-labeling of the β-1 subunits,[2]; MM.1S cells,1 nM
same,concentration decreasing dansylAhx3L3VS-labeling of the β-2 subunits,[2]; MM.1S cells,20 nM

# From patent US10610517B2, “Compositions and methods for treating neoplastic diseases” (Celgene International II Sàrl, priority 2004, dated 2020)
